Measured values as given in PMC11460631, “Inhibition of transient receptor potential vanilloid 3 channels by antimalarial hydroxychloroquine alleviates TRPV3-dependent dermatitis” (The Journal of Biological Chemistry, 2024).

Key:
[1] = target: T1, TRPV3 (Homo sapiens, UniProt Q8NET8); experiment: Whole-cell patch-clamp recordings of TRPV3 currents in transfected HEK293T cells; format: cell-based; conditions: 1 mM agonist, whole-cell, n = 5 cells
T1 construct: YFP or GFP; expressed in transfected cells; host or cells: HEK293T
T1 sequence (Q8NET8 1-790): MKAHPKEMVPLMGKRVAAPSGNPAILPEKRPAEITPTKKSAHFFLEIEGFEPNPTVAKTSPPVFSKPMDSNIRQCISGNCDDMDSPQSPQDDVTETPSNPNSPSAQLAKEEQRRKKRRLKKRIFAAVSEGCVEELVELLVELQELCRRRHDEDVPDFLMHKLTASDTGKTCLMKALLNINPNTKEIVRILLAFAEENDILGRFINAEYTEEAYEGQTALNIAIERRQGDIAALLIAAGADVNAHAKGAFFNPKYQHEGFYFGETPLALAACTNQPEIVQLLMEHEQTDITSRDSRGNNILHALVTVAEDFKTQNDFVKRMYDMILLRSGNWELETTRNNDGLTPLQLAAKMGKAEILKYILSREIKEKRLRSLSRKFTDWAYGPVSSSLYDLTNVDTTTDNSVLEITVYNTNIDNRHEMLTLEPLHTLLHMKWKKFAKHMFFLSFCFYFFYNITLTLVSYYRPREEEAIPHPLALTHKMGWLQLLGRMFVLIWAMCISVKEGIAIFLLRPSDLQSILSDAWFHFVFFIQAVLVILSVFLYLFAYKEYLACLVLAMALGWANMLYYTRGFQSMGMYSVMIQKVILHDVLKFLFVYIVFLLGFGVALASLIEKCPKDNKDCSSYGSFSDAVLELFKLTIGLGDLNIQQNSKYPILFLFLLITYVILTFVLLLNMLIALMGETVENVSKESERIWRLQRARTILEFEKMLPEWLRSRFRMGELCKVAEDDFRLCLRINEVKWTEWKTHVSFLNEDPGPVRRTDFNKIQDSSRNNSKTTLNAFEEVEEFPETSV
Protocol: (§1) HEK293T cells are cultured using Dulbecco's modified Eagle's medium containing 10% fetal bovine serum and 1% penicillin-streptomycin in a cell incubator with 5% CO2 at 37 °C. Plasmids of murine TRPV1, TRPV4, TRPM8, and human TRPV3, TRPA1 are labeled with YFP or GFP as indicators for subsequent electrophysiological recordings. Complementary DNA constructs of ion channels were transiently transfected with Lipofectamine 3000 (Invitrogen). And 12 to 18 h after transient transfection, electrophysiological recordings were performed.
(§2) Patch-clamp recordings were carried out with a HEKA EPC10 amplifier controlled by PatchMaster software (HEKA; https://www.heka.com/products/products_main.html#soft_pm) ([36]). Patch pipettes were prepared from borosilicate glass and fire-polished to the resistance of 3 to 8 MΩ by P-97 puller for whole-cell recordings. For single-channel recordings, patch pipettes were fire-polished to a higher resistance of 6 to 10 MΩ. Both bath solution and pipette solution contained 130 mM NaCl, 10 mM glucose, 0.2 mM EDTA, and 3 mM Hepes and were adjusted to pH 7.2 to 7.4 with NaOH. Whole-cell recordings and single-channel recordings were performed at ± 80 mV. The current was sampled at 10 kHz and filtered at 2.9 kHz. All recordings were performed at room temperature (25 °C). A gravity-driven system (RSC-200, Bio-Logic) with freely rotated perfusion tubes was used for the perfusion of ligands. Bath and ligand solutions were delivered through separate tubes to minimize the mixing of solutions. Patch pipette holding cells were placed in front of the perfusion tube outlet for perfusion.
All data from whole-cell recordings were analyzed in Igor Pro (WaveMetrics). IC50 values were determined by fitting the Hill equation to concentration-response relationships. Data are shown as mean ± SEM. Statistical significance between two groups was conducted with an unpaired two-tailed t test, and statistical significance among multiple groups was conducted with one-way ANOVA using Dunnett’s multiple comparisons test or Tukey's post hoc test. Differences were regarded as statistically significant with ∗, p < 0.05; ∗∗, p < 0.01; ∗∗∗, p < 0.001; ∗∗∗∗, and p < 0.0001; N.S., no significance.

[2] = target: T1, TRPV3; experiment: Calcium imaging (Fluo-4/AM) of TRPV3-expressing HEK293T cells; format: cell-based
Protocol: as §1
Calcium imaging assays were performed as described previously ([37]). Transiently transfected HEK293 cells seeded on 25 mm coverslips were washed twice with an extracellular solution containing 140 mM NaCl, 5 mM KCl, 2 mM MgCl2, 2 mM CaCl2, 10 mM glucose, and 10 mM Hepes (pH 7.4), followed by incubation in 2 ml of extracellular solution supplemented with 2 μM Fluo-4/AM as a Molecular Probes at room temperature for 60 min. Fluorescence images of HEK293T cells were acquired with a Nikon Eclipse Ti2 microscope with an optiMOS charge-coupled device camera controlled by the Ocular Software ([…]; https://www.photometrics.com/products/ocular).

[3] = target: T1, TRPV3; experiment: Single-channel recordings of TRPV3 in the inside-out configuration; format: cell-based; conditions: 1 mM 2-APB alone, −80 mV
Protocol: as §1
as §2, with “perfusion. Igor Pro versions 5.05 and 9.05 (WaveMetrics; https://www.wavemetrics.com/products/igorpro) were used to analyze the data.” for “perfusion.”

[4] = test system: C57BL/6J male mice; experiment: Carvacrol-induced AD-like mouse model: skin appearance scores and H&E epidermal thickness; format: in vivo; conditions: score of 0 to 4, topical, 5 days; for erythema score: 2% carvacrol alone or with HCQ 2 mg/ml or DXM 1 mg/ml
Protocol: (§3) We therefore generated a carvacrol-induced AD mouse model to test the effect of HCQ.
To investigate the effect of HCQ on carvacrol-induced dermatitis in animals, C57BL/6J male mice (aged 6 weeks) were obtained from the Animal Experimental Center of Hangzhou Medical College (Hangzhou, Zhejiang Province). Mice were housed and maintained in an environment with a 12-h light/dark cycle and a controlled temperature of 22.0 ± 2.0 °C. Food and water were accessible ad libitum. All the animal procedures were approved by the Institutional Animal Care & Use Committee of Zhejiang Center of Laboratory Animals (ZJCLA).
(§4) To generate an AD-like mice model, 2% carvacrol (dissolved in 30% ethanol solution) was topically smeared onto the mice dorsum 1 day after hair removal with a depilatory cream (Vetin Depilatory Cream). Mice received a topical administration of an equal volume (200 μl) of 2% carvacrol or in the presence of 2 mg/ml HCQ. […] After the application of carvacrol for 5 days, the external appearance of mice was photographed and then sampled. The external appearance was graded based on three aspects: thickness, erythema/bleeding, and dryness/desquamation, with severity assessed on a score of 0 to 4. The degree of thickness was measured by the thickness of the skin in H&E staining. Skin tissues were either fixed in 4% paraformaldehyde or placed in PBS buffer containing 1% protease inhibitor, facilitating subsequent steps of paraffin embedding or ELISA experiments.
Mice were sacrificed 24 h after the last dose of treatment. Mouse dorsal skin was removed with scissors and forceps before being fixed with 4% paraformaldehyde. Paraffin-embedded tissues were sectioned and stained with H&E. Pictures of stained sections were acquired with a Nikon Eclipse Ti-S microscope with a charge-coupled device camera (DS-Ri2, Nikon).

[5] = test system: TNF-α, IL-6, IgE, IL-4 in mouse dorsal skin tissues; experiment: Carvacrol-induced AD-like mouse model: inflammatory factors by ELISA; format: in vivo
Protocol: as §3, §4
Animal skin tissues were placed in PBS buffer containing 1% protease inhibitors, then homogenized, and centrifuged for supernatants. Cytokine concentrations of supernatants (IL-4, IL-6, TNF-α, and IgE) were measured using ELISA kits (Tsingke) according to the manufacturer's instructions. The absorption at 450 nm was measured by a microplate reader (Thermo Multiskan MK3).

[6] = DXM 1 mg/ml topical with 2% carvacrol

SMILES: NCCOB(c1ccccc1)c1ccccc1 [2-APB, 2-aminoethoxydiphenylborate]
- wash-off time constant of TRPV3 current [1]: 4.05 ± 0.73 s
- calcium influx, area under the curve (AUC) of 2-APB activation ([2]; 1 mM 2-APB alone): 22.92 ± 1.44
- TRPV3 channel open probability (Po) [3]: 0.89 ± 0.06
- single-channel conductance [3]: 90.69 ± 2.67 pS

SMILES: C[C@@H]1C[C@H]2[C@@H]3CCC4=CC(=O)C=C[C@]4(C)[C@@]3(F)[C@@H](O)C[C@]2(C)[C@@]1(O)C(=O)CO [DXM, dexamethasone]
- erythema score [4]: 2.83 ± 0.17
- effect on IL-6 and TNF-α [5, 6]: no significant effect
- effect on serum IgE levels [5, 6]: reduces
- IL-4 levels compared to the model group ([5]; mouse tissues, HCQ 2 mg/ml or DXM 1 mg/ml topical with 2% carvacrol): effectively reduced

SMILES: Cc1ccc(C(C)C)cc1O [carvacrol]
- wash-off time constant of TRPV3 current [1]: 1.43 ± 0.38 s
- dry desquamation score ([4]; 2% carvacrol alone or with HCQ 2 mg/ml): 3.17 ± 0.31
- erythema score [4]: 3.67 ± 0.21

SMILES: C[C@H](CCC(=O)O)C[C@H](C)C[C@H](C)C(=O)/C=C(\O)[C@H](C)C[C@H](C)C/C=C/[C@@H](C)[C@@H](O)[C@@H](C)[C@@H](O)C[C@@H]1CC[C@@](C)([C@H]2CC[C@@](C)([C@@H](C)O)O2)O1 [ionomycin]
- calcium influx, area under the curve (AUC), positive control ([2]; 10 μM ionomycin): 41.59 ± 1.50
